Laboratory results taken from patent US20260306476A1, “ANTIBACTERIAL COMPOUND PBT2” (priority 2022, published 2026).

Assays:
[1] = tested on: Neisseria gonorrhoeae ATCC49226; assay: MIC of PBT2 and comparators against CLSI reference strain; type: cell-based
From the text: 13 multidrug resistant WHO strains of Neisseria gonorrhoeae were selected to cover antimicrobial resistance phenotypes to all the antibiotics currently used.

[2] = tested on: non-typeable Haemophilus influenzae (NTHi) 2019; assay: MIC of PBT2 alone (broth); type: cell-based
Procedure: (§1) The MIC of PBT2 against five non-typeable Haemophilus influenzae (NTHi) strains was determined (CLSI. 2022. Performance Standards for Antimicrobial Susceptibility Testing, 32nd Edition. Clinical and Laboratory Standards Institute).

[3] = tested on: non-typeable Haemophilus influenzae (NTHi) 723; assay: MIC of PBT2 alone (broth); type: cell-based
Procedure: as §1

[4] = tested on: non-typeable Haemophilus influenzae (NTHi) 86-028NP; assay: MIC of PBT2 alone (broth); type: cell-based
Procedure: as §1

[5] = tested on: non-typeable Haemophilus influenzae (NTHi) ATCC49766; assay: MIC of PBT2 alone (broth); type: cell-based
Procedure: as §1

[6] = tested on: non-typeable Haemophilus influenzae (NTHi) R2866; assay: MIC of PBT2 alone (broth); type: cell-based
Procedure: as §1

[7] = tested on: Campylobacter jejuni 81-176; assay: MIC of PBT2 alone (broth); type: cell-based; details: 81176
Procedure: (§2) The MIC of PBT2 against three Campylobacter jejuni strains was determined. All strains tested were sensitive to PBT2.

[8] = tested on: Campylobacter jejuni ATCC 33560; assay: MIC of PBT2 alone (broth); type: cell-based; details: ATCC33560
Procedure: as §2

[9] = tested on: Campylobacter jejuni NCTC 11168; assay: MIC of PBT2 alone (broth); type: cell-based; details: NCTC11168
Procedure: as §2

[10] = tested on: Helicobacter pylori ATCC 43504; assay: MIC of PBT2 alone (agar); type: cell-based; details: ATCC43504
[11] = tested on: primary human cervical epithelial (Pex) cells; assay: PBT2-induced Pex cell cytotoxicity; type: cell-based; details: PBT2 0.016 to 4.695 mg/L; 24 h
Procedure: To assess the ability of PBT2 to cure an established gonococcal infection in a human ex vivo system, primary human cervical epithelial (Pex) cells were challenged with Neisseria gonorrhoeae strain WHO Z for 90 min and then treated with 0.1% DMSO (vehicle control), PBT2 (0.016 mg/L to 4.695 mg/L), or ceftriaxone (0.5 mg/L, positive control) for 24 h. Viable gonococci were then enumerated. […] PBT2-induced Pex cell cytotoxicity was not observed during the assay.

[12] = human; 250 mg/day for up to 72 hours; NCT02249728; cited from earlier work
[13] = cited from earlier work
[14] = tested on: Streptococcus uberis (S. uberis); details: in the absence of an antibiotic; cited from earlier work
[15] = tested on: Neisseria meningitidis Z2491 (A); assay: MIC of PBT2 (broth and agar)
[16] = tested on: Neisseria meningitidis PMC1 (X); assay: MIC of PBT2 (broth and agar)
[17] = tested on: Neisseria meningitidis PMC2 (Z/29E); assay: MIC of PBT2 (broth and agar)
[18] = tested on: Neisseria meningitidis PMC10 (Y); assay: MIC of PBT2 (broth and agar)
[19] = tested on: Neisseria meningitidis PMC19 (W); assay: MIC of PBT2 (broth and agar)

## CN(C)Cc1ccc2c(Cl)cc(Cl)c(O)c2n1 [PBT2, 5,7-dichloro-2-[(dimethylamino)methyl]quinolin-8-ol]
[1]; ATCC49226, ATCC49226, agar
  MIC: 0.625 µg/mL
[1]; ATCC49226, ATCC49226, broth
  MIC: 0.312 µg/mL
[2]
  MIC: 2.5 µg/mL
[3]
  MIC: 1.25 µg/mL
[4]
  MIC: 2.5 µg/mL
[5]
  MIC: 0.312 µg/mL
[6]
  MIC: 2.5 µg/mL
[7]
  MIC: 0.156 µg/mL
[8]
  MIC: 0.156 µg/mL
[9]
  MIC: 0.313 µg/mL
[10]
  MIC: 2.5 µg/mL
[11]
  PBT2-induced Pex cell cytotoxicity: not observed
[12]
  plasma drug level (AUC): 1,660 ng*h/ml
[13]; 250 mg daily for up to 12 months, without serious side effects or withdrawal symptoms
  safety and tolerability: safe and well-tolerated, without serious side effects or withdrawal symptoms
[13]; data from phase II clinical trials
  safety: safe-for-human-use
[14]
  antibacterial activity: neither PBT2 nor zinc alone displayed antibacterial activity which would be suitable to treat an infection
[15]; agar
  MIC: 0.039 µg/mL
[15]; broth
  MIC: 0.156 µg/mL
[16]
  MIC: 0.039 µg/mL
[17]; agar
  MIC: 0.039 µg/mL
[17]; broth
  MIC: 0.156 µg/mL
[18]; agar
  MIC: 0.156 µg/mL
[18]; broth
  MIC: 0.625 µg/mL
[19]; agar
  MIC: 0.078 µg/mL
[19]; broth
  MIC: 0.156 µg/mL
